Reference: ChEMBL document CHEMBL5131424, “Synthesis and evaluation of antibacterial and trypanocidal activity of derivatives of monensin A” (Bioorg Med Chem Lett, 2022)
Converted amounts (≈) assume the structure as drawn.

What was measured:
[1] = test system: Staphylococcus epidermidis; test: Antibacterial activity against Staphylococcus epidermidis 825/19; format: functional
[2] = test system: Staphylococcus epidermidis; test: Antibacterial activity against Staphylococcus epidermidis 851/19; format: functional
[3] = test system: Staphylococcus epidermidis; test: Antibacterial activity against Staphylococcus epidermidis 829/19; format: functional
Pseudomonas aeruginosa [4] = test: Antibacterial activity against Pseudomonas aeruginosa ATCC 15442; format: functional
Staphylococcus aureus [5] = test: Antibacterial activity against Staphylococcus aureus ATCC 25923; format: functional
Staphylococcus aureus [6] = test: Antibacterial activity against Staphylococcus aureus ATCC 29213; format: functional
[7] = test system: Staphylococcus epidermidis; test: Antibacterial activity against Staphylococcus epidermidis 848/19; format: functional
Staphylococcus aureus [8] = test: Antibacterial activity against Staphylococcus aureus ATCC 6538; format: functional
[9] = test system: Staphylococcus epidermidis; test: Antibacterial activity against Staphylococcus epidermidis ATCC 12228; format: functional
[10] = test system: Staphylococcus epidermidis; test: Antibacterial activity against Staphylococcus epidermidis 845/19; format: functional
[11] = test system: Staphylococcus epidermidis; test: Antibacterial activity against Staphylococcus epidermidis 840/19; format: functional
Trypanosoma brucei = test: Antitrypanosomal activity against bloodstream form of Trypanosoma brucei clone 427-221a measured after 24 hrs by resazurin dye based assay; format: functional
[12] = test system: Staphylococcus epidermidis; test: Antibacterial activity against Staphylococcus epidermidis ATCC 35984; format: functional
[13] = Selectivity ratio of GI50 for cytotoxicity against human HL-60 cells to GI50 for antitrypanosomal activity against bloodstream form of Trypanosoma brucei clone 427-221a; format: toxicity, cell-based; conditions: read-out: RatioGI50
[14] = (§1) Cytotoxicity against human HL-60 cells assessed as reduction in cell viability measured after 24 hrs by resazurin dye based assay; format: toxicity; conditions: HL-60 cells
HL-60 = test: as §1; format: toxicity; conditions: hl-60, 24 h
[15] = Selectivity ratio of MIC for cytotoxicity against human HL-60 cells to MIC for antitrypanosomal activity against bloodstream form of Trypanosoma brucei clone 427-221a; format: toxicity, cell-based
Escherichia coli [16] = test: Antibacterial activity against Escherichia coli ATCC 25922; format: functional
Pseudomonas aeruginosa [17] = test: Antibacterial activity against Pseudomonas aeruginosa […]; format: functional
[18] = test system: Staphylococcus epidermidis; test: Antibacterial activity against Staphylococcus epidermidis 830/19; format: functional
[19] = test system: Staphylococcus epidermidis; test: Antibacterial activity against Staphylococcus epidermidis 834/19; format: functional
Escherichia coli [20] = test: Antibacterial activity against Escherichia coli NCTC 10538; format: functional
Staphylococcus aureus [21] = test: Antibacterial activity against Staphylococcus aureus NCTC 4163; format: functional

SMILES: CO[C@H]([C@H](C)[C@H]1O[C@@]2(CC[C@@](C)([C@H]3CC[C@@](CO)([C@@H]4O[C@@H]([C@H]5O[C@@](O)(COC(C)=O)[C@H](C)C[C@@H]5C)C[C@@H]4C)O3)O2)C[C@H](O)[C@H]1C)[C@H](C)C(=O)O
- MIC [1]: 0.25 µg/mL (≈ 0.35 µM)
- MIC [2]: 2 µg/mL (≈ 2.8 µM)
- MIC [3]: 1 µg/mL (≈ 1.4 µM)
- MIC (Pseudomonas aeruginosa [4]): > 256 µg/mL
- MIC (Staphylococcus aureus [5]): 1 µg/mL (≈ 1.4 µM)
- MIC (Staphylococcus aureus [6]): 2 µg/mL (≈ 2.8 µM)
- MIC [7]: 1 µg/mL (≈ 1.4 µM)
- MIC (Staphylococcus aureus [8]): 2 µg/mL (≈ 2.8 µM)
- MIC [9]: 1 µg/mL (≈ 1.4 µM)
- MIC [10]: 2 µg/mL (≈ 2.8 µM)
- MIC [11]: 2 µg/mL (≈ 2.8 µM)
- GI50 (Trypanosoma brucei): 0.29 µM
- MIC (Trypanosoma brucei): 1 µM (≈ 0.715 µg/mL)
- MIC [12]: 2 µg/mL (≈ 2.8 µM)
- selectivity ratio [13]: 19
- GI50 at 24 h [14]: 5.51 µM
- MIC (HL-60): 10 µM (≈ 7.15 µg/mL)
- selectivity ratio [15]: 10
- MIC (Escherichia coli [16]): > 256 µg/mL
- MIC (Pseudomonas aeruginosa [17]): > 256 µg/mL
- MIC [18]: 1 µg/mL (≈ 1.4 µM)
- MIC [19]: 1 µg/mL (≈ 1.4 µM)
- MIC (Escherichia coli [20]): > 256 µg/mL
- MIC (Staphylococcus aureus [21]): 2 µg/mL (≈ 2.8 µM)

SMILES: CCNC(=O)OC[C@]1(O)O[C@H]([C@H]2C[C@H](C)[C@H]([C@]3(CO)CC[C@H]([C@]4(C)CC[C@]5(C[C@H](O)[C@@H](C)[C@@H]([C@@H](C)[C@@H](OC)[C@H](C)C(=O)O)O5)O4)O3)O2)[C@@H](C)C[C@H]1C
- MIC [1]: 8 µg/mL (≈ 10.8 µM)
- MIC [2]: 16 µg/mL (≈ 21.5 µM)
- MIC [3]: 8 µg/mL (≈ 10.8 µM)
- MIC (Pseudomonas aeruginosa [4]): > 256 µg/mL
- MIC (Staphylococcus aureus [5]): 4 µg/mL (≈ 5.38 µM)
- MIC (Staphylococcus aureus [6]): 8 µg/mL (≈ 10.8 µM)
- MIC [7]: 16 µg/mL (≈ 21.5 µM)
- MIC (Staphylococcus aureus [8]): 8 µg/mL (≈ 10.8 µM)
- MIC [9]: 8 µg/mL (≈ 10.8 µM)
- MIC [10]: 8 µg/mL (≈ 10.8 µM)
- MIC [11]: 8 µg/mL (≈ 10.8 µM)
- GI50 (Trypanosoma brucei): 3.05 µM
- MIC (Trypanosoma brucei): 10 µM (≈ 7.44 µg/mL)
- MIC [12]: 16 µg/mL (≈ 21.5 µM)
- selectivity ratio [13]: 28.1
- GI50 at 24 h [14]: 85.8 µM
- MIC (HL-60): 100 µM (≈ 74.4 µg/mL)
- selectivity ratio [15]: 10
- MIC (Escherichia coli [16]): > 256 µg/mL
- MIC (Pseudomonas aeruginosa [17]): > 256 µg/mL
- MIC [18]: 8 µg/mL (≈ 10.8 µM)
- MIC [19]: 4 µg/mL (≈ 5.38 µM)
- MIC (Escherichia coli [20]): > 256 µg/mL
- MIC (Staphylococcus aureus [21]): 8 µg/mL (≈ 10.8 µM)

SMILES: CO[C@H]([C@H](C)[C@H]1O[C@@]2(CC[C@@](C)([C@H]3CC[C@@](CO)([C@@H]4O[C@@H]([C@H]5O[C@@](O)(COC(=O)c6ccccc6)[C@H](C)C[C@@H]5C)C[C@@H]4C)O3)O2)C[C@H](O)[C@H]1C)[C@H](C)C(=O)O
- MIC [1]: 0.5 µg/mL (≈ 0.644 µM)
- MIC [2]: 1 µg/mL (≈ 1.29 µM)
- MIC [3]: 2 µg/mL (≈ 2.57 µM)
- MIC (Pseudomonas aeruginosa [4]): > 256 µg/mL
- MIC (Staphylococcus aureus [5]): 1 µg/mL (≈ 1.29 µM)
- MIC (Staphylococcus aureus [6]): 1 µg/mL (≈ 1.29 µM)
- MIC [7]: 2 µg/mL (≈ 2.57 µM)
- MIC (Staphylococcus aureus [8]): 1 µg/mL (≈ 1.29 µM)
- MIC [9]: 1 µg/mL (≈ 1.29 µM)
- MIC [10]: 2 µg/mL (≈ 2.57 µM)
- MIC [11]: 2 µg/mL (≈ 2.57 µM)
- GI50 (Trypanosoma brucei): 2.62 µM
- MIC (Trypanosoma brucei): 10 µM (≈ 7.77 µg/mL)
- MIC [12]: 1 µg/mL (≈ 1.29 µM)
- selectivity ratio [13]: 7
- GI50 at 24 h [14]: 18.3 µM
- MIC (HL-60): 100 µM (≈ 77.7 µg/mL)
- selectivity ratio [15]: 10
- MIC (Escherichia coli [16]): > 256 µg/mL
- MIC (Pseudomonas aeruginosa [17]): > 256 µg/mL
- MIC [18]: 1 µg/mL (≈ 1.29 µM)
- MIC [19]: 1 µg/mL (≈ 1.29 µM)
- MIC (Escherichia coli [20]): > 256 µg/mL
- MIC (Staphylococcus aureus [21]): 1 µg/mL (≈ 1.29 µM)

SMILES: CO[C@H]([C@H](C)[C@H]1O[C@@]2(CC[C@@](C)([C@H]3CC[C@@](CO)([C@@H]4O[C@@H]([C@H]5O[C@@](O)(COC(=O)NCCCCl)[C@H](C)C[C@@H]5C)C[C@@H]4C)O3)O2)C[C@H](O)[C@H]1C)[C@H](C)C(=O)O
- MIC [1]: 2 µg/mL (≈ 2.52 µM)
- MIC [2]: 4 µg/mL (≈ 5.05 µM)
- MIC [3]: 4 µg/mL (≈ 5.05 µM)
- MIC (Pseudomonas aeruginosa [4]): > 256 µg/mL
- MIC (Staphylococcus aureus [5]): 2 µg/mL (≈ 2.52 µM)
- MIC (Staphylococcus aureus [6]): 4 µg/mL (≈ 5.05 µM)
- MIC [7]: 8 µg/mL (≈ 10.1 µM)
- MIC (Staphylococcus aureus [8]): 2 µg/mL (≈ 2.52 µM)
- MIC [9]: 4 µg/mL (≈ 5.05 µM)
- MIC [10]: 4 µg/mL (≈ 5.05 µM)
- MIC [11]: 8 µg/mL (≈ 10.1 µM)
- GI50 (Trypanosoma brucei): 3.05 µM
- MIC (Trypanosoma brucei): 10 µM (≈ 7.92 µg/mL)
- MIC [12]: 4 µg/mL (≈ 5.05 µM)
- selectivity ratio [13]: 5.9
- GI50 at 24 h [14]: 18.1 µM
- MIC (HL-60): 100 µM (≈ 79.2 µg/mL)
- selectivity ratio [15]: 10
- MIC (Escherichia coli [16]): > 256 µg/mL
- MIC (Pseudomonas aeruginosa [17]): > 256 µg/mL
- MIC [18]: 4 µg/mL (≈ 5.05 µM)
- MIC [19]: 4 µg/mL (≈ 5.05 µM)
- MIC (Escherichia coli [20]): > 256 µg/mL
- MIC (Staphylococcus aureus [21]): 2 µg/mL (≈ 2.52 µM)

SMILES: CO[C@H]([C@H](C)[C@H]1O[C@@]2(CC[C@@](C)([C@H]3CC[C@@](CO)([C@@H]4O[C@@H]([C@H]5O[C@@](O)(COC(=O)NCc6ccccc6)[C@H](C)C[C@@H]5C)C[C@@H]4C)O3)O2)C[C@H](O)[C@H]1C)[C@H](C)C(=O)O
- MIC [1]: 1 µg/mL (≈ 1.24 µM)
- MIC [2]: 2 µg/mL (≈ 2.48 µM)
- MIC [3]: 2 µg/mL (≈ 2.48 µM)
- MIC (Pseudomonas aeruginosa [4]): > 256 µg/mL
- MIC (Staphylococcus aureus [5]): 1 µg/mL (≈ 1.24 µM)
- MIC (Staphylococcus aureus [6]): 2 µg/mL (≈ 2.48 µM)
- MIC [7]: 2 µg/mL (≈ 2.48 µM)
- MIC (Staphylococcus aureus [8]): 1 µg/mL (≈ 1.24 µM)
- MIC [9]: 1 µg/mL (≈ 1.24 µM)
- MIC [10]: 2 µg/mL (≈ 2.48 µM)
- MIC [11]: 2 µg/mL (≈ 2.48 µM)
- GI50 (Trypanosoma brucei): 0.31 µM
- MIC (Trypanosoma brucei): 1 µM (≈ 0.806 µg/mL)
- MIC [12]: 2 µg/mL (≈ 2.48 µM)
- selectivity ratio [13]: 62.9
- GI50 at 24 h [14]: 19.5 µM
- MIC (HL-60): 100 µM (≈ 80.6 µg/mL)
- selectivity ratio [15]: 100
- MIC (Escherichia coli [16]): > 256 µg/mL
- MIC (Pseudomonas aeruginosa [17]): > 256 µg/mL
- MIC [18]: 2 µg/mL (≈ 2.48 µM)
- MIC [19]: 2 µg/mL (≈ 2.48 µM)
- MIC (Escherichia coli [20]): > 256 µg/mL
- MIC (Staphylococcus aureus [21]): 1 µg/mL (≈ 1.24 µM)
